Read-outs that look alike come from different tables or passages of the source.
What was measured:
[1] = system: MYC protein expression in MCF-7 breast cancer cells; experiment: Western blotting of MYC protein level in MCF-7 cells; format: cell-based, human; details: Homo sapiens, MCF7; western blotting, MCF-7 cells, 0.5, 1, 2, and 4 μM, 24 hours; read-out: MYC Inhibition
Outline: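 MCF-7 cells were exposed to compounds at 0.5, 1, 2 and 4 μM for 24 hours at 37° C. MYC was detected by immunoblot with ECL, using rabbit anti-MYC (1:1000) and anti-GAPDH (1:2000) as loading control.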

NCI-60 cancer cell lines = experiment: NCI-60 cancer cell line drug screen (GI50, MGM); format: cell-based, human; details: Homo sapiens; for GI50: read-out: Antiproliferative Activities [GI50 (μM)]
Description: Cancer cells were incubated with the test compounds at five concentrations ranging from 100 μM to 10 nM for 48 h. […] The approximate average of GI50 values across the entire panel of NCI-60 cancer cell lines for each compound was recorded as the MGM value.

human topoisomerase I = molecular target: T1, human topoisomerase I (Homo sapiens, UniProt P11387); details: relative topoisomerase I inhibition levels, previously determined, six levels (0 - 5, +++++ = 5); cited from earlier work
T1 sequence (P11387 1-765): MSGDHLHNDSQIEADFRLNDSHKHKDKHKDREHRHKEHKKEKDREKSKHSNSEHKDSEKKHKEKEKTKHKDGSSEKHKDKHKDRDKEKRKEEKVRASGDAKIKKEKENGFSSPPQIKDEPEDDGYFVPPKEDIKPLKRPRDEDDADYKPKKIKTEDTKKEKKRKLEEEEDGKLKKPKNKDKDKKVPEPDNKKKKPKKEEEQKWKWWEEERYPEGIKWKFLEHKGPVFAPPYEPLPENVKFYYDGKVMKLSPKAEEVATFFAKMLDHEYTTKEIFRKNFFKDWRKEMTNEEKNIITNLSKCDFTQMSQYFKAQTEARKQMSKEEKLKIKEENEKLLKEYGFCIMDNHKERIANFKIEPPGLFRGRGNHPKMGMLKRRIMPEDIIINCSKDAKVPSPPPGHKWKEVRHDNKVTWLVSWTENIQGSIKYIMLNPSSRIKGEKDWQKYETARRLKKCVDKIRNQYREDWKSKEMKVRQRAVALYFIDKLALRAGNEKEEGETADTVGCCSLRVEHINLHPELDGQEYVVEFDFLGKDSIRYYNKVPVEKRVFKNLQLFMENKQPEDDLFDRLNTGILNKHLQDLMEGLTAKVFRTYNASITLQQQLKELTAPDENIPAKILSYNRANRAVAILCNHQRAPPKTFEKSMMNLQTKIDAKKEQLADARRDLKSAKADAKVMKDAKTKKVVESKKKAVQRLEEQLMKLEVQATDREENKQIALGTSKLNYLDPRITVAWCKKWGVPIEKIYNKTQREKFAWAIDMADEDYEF

With CN(C)CCCn1c2c(c3ccc(-c4ccn[nH]4)cc3c1=O)C(=O)c1ccccc1-2 [Compound 30] the minimal effective concentration [1] was 4 µM, the GI50 (NCI-60 cancer cell lines; 786-0, Renal Cancer, 786-0) was 0.22 µM and the GI50 (NCI-60 cancer cell lines; A498, Renal Cancer, A498) was 10.6 µM. For the same compound, the GI50 (NCI-60 cancer cell lines; A549, Non-Small Cell Lung Cancer, A549/ATCC) was 0.06 µM, the GI50 (NCI-60 cancer cell lines; ACHN, Renal Cancer, ACHN) was 0.09 µM and the GI50 (NCI-60 cancer cell lines; BT-549, Breast Cancer, BT-549) was 3.1 µM. It also gave a GI50 (NCI-60 cancer cell lines; CCRF-CEM, Leukemia, CCRF-CEM) of 0.03 µM, a GI50 (NCI-60 cancer cell lines; COLO 205, Colon Cancer, COLO 205) of 4.92 µM and a GI50 (NCI-60 cancer cell lines; DU-145, Prostate Cancer, DU-145) of 0.2 µM. It also gave a GI50 (NCI-60 cancer cell lines; EKVX, Non-Small Cell Lung Cancer, EKVX) of 2.91 µM, a GI50 (NCI-60 cancer cell lines; HCC 2998, Colon Cancer, HCC-2998) of 10 µM and a GI50 (NCI-60 cancer cell lines; HCT-15, Colon Cancer, HCT-15) of 0.09 µM. For the same compound, the GI50 (NCI-60 cancer cell lines; HCT-116, Colon Cancer, HCT-116) was 0.39 µM, the GI50 (NCI-60 cancer cell lines; HL-60, Leukemia, HL-60(TB)) was 0.03 µM and the GI50 (NCI-60 cancer cell lines; HOP-62, Non-Small Cell Lung Cancer, HOP-62) was 0.18 µM. The GI50 (NCI-60 cancer cell lines; HOP-92, Non-Small Cell Lung Cancer, HOP-92) was 0.13 µM, the GI50 (NCI-60 cancer cell lines; HT-29, Colon Cancer, HT29) was 0.34 µM and the GI50 (NCI-60 cancer cell lines; Hs-578T, Breast Cancer, HS 578T) was 4.9 µM. It also gave a GI50 (NCI-60 cancer cell lines; IGROV-1, Ovarian Cancer, IGROV1) of 0.58 µM, a GI50 (NCI-60 cancer cell lines; K562, Leukemia, K-562) of 0.34 µM and a GI50 (NCI-60 cancer cell lines; KM12, Colon Cancer, KM12) of 0.53 µM. The GI50 (NCI-60 cancer cell lines; LOX IMVI, Melanoma, LOX IMVI) was 0.1 µM, the GI50 (NCI-60 cancer cell lines; Leukemia, SR) was 0.02 µM and the GI50 (NCI-60 cancer cell lines; MCF7, Breast Cancer, MCF7) was 0.04 µM. It also gave a GI50 (NCI-60 cancer cell lines; MDA-MB-231, Breast Cancer, MDA-MB-231/ATCC) of 1.27 µM, a GI50 (NCI-60 cancer cell lines; MDA-MB-435, Melanoma, MDA-MB-435) of 10.3 µM and a GI50 (NCI-60 cancer cell lines; MDA-MB-468, Breast Cancer, MDA-MB-468) of 7.84 µM. For the same compound, the GI50 (NCI-60 cancer cell lines; MOLT-4, Leukemia, MOLT-4) was 0.02 µM, the GI50 (NCI-60 cancer cell lines; Malme-3M, Melanoma, MALME-3M) was 0.93 µM and the GI50 (NCI-60 cancer cell lines; Melanoma, M14) was 1.65 µM. The GI50 (NCI-60 cancer cell lines; NCI-H23, Non-Small Cell Lung Cancer, NCI-H23) was 0.24 µM, the GI50 (NCI-60 cancer cell lines; NCI-H226, Non-Small Cell Lung Cancer, NCI-H226) was 0.27 µM and the GI50 (NCI-60 cancer cell lines; NCI-H322M, Non-Small Cell Lung Cancer, NCI-H322M) was 7.05 µM. For the same compound, the GI50 (NCI-60 cancer cell lines; NCI-H460, Non-Small Cell Lung Cancer, NCI-H460) was 0.04 µM, the GI50 (NCI-60 cancer cell lines; NCI-H522, Non-Small Cell Lung Cancer, NCI-H522) was 0.84 µM and the GI50 (NCI-60 cancer cell lines; OVCAR-3, Ovarian Cancer, OVCAR-3) was 6.09 µM. For the same compound, the GI50 (NCI-60 cancer cell lines; OVCAR-4, Ovarian Cancer, OVCAR-4) was 1.45 µM, the GI50 (NCI-60 cancer cell lines; OVCAR-5, Ovarian Cancer, OVCAR-5) was 1.51 µM and the GI50 (NCI-60 cancer cell lines; OVCAR-8, Ovarian Cancer, OVCAR-8) was 0.16 µM. It also gave a GI50 (NCI-60 cancer cell lines; Ovarian Cancer, NCl/ADR-RES) of 1.48 µM, a GI50 (NCI-60 cancer cell lines; Prostate Cancer, PC-3) of 1.21 µM and a GI50 (NCI-60 cancer cell lines; RPMI-8226, Leukemia, RPMI-8226) of 0.12 µM. It also gave a GI50 (NCI-60 cancer cell lines; RXF 393, Renal Cancer, RXF 393) of 1.66 µM, a GI50 (NCI-60 cancer cell lines; Renal Cancer, U0-31) of 0.3 µM and a GI50 (NCI-60 cancer cell lines; SF-268, CNS Cancer, SF-268) of 1.85 µM. The GI50 (NCI-60 cancer cell lines; SF-295, CNS Cancer, SF-295) was 0.36 µM, the GI50 (NCI-60 cancer cell lines; SF-539, CNS Cancer, SF-539) was 1.04 µM and the GI50 (NCI-60 cancer cell lines; SK-MEL-2, Melanoma, SK-MEL-2) was 18.2 µM. It also gave a GI50 (NCI-60 cancer cell lines; SK-MEL-5, Melanoma, SK-MEL-5) of 0.48 µM, a GI50 (NCI-60 cancer cell lines; SK-MEL-28, Melanoma, SK-MEL-28) of 2.01 µM and a GI50 (NCI-60 cancer cell lines; SK-OV-3, Ovarian Cancer, SK-OV-3) of 1.21 µM. It also gave a GI50 (NCI-60 cancer cell lines; SN12C, Renal Cancer, SN12C) of 0.25 µM, a GI50 (NCI-60 cancer cell lines; SNB-19, CNS Cancer, SNB-19) of 0.33 µM and a GI50 (NCI-60 cancer cell lines; SNB-75, CNS Cancer, SNB-75) of 1.39 µM. The GI50 (NCI-60 cancer cell lines; SW-620, Colon Cancer, SW-620) was 0.2 µM, the GI50 (NCI-60 cancer cell lines; T47D, Breast Cancer, T-47D) was 0.63 µM and the GI50 (NCI-60 cancer cell lines; TK-10, Renal Cancer, TK-10) was 2.75 µM. For the same compound, the GI50 (NCI-60 cancer cell lines; U-251, CNS Cancer, U251) was 0.18 µM, the GI50 (NCI-60 cancer cell lines; UACC-62, Melanoma, UACC-62) was 0.72 µM and the GI50 (NCI-60 cancer cell lines; UACC-257, Melanoma, UACC-257) was 12.3 µM. For the same compound, the mean GI50 across NCI-60 panel (MGM) (NCI-60 cancer cell lines; average of GI50 values across the entire panel of NCI-60 cancer cell lines) was 600 nM and the “Top1 Inhibiton” value (human topoisomerase I) was 0 (no inhibition, 0, no MYC expression inhibition up to 4.0 μM).

— US20210382058A1, “PATIENT SELECTION FOR TREATMENT OF MYC POSITIVE CANCERS WITH INDENOISOQUINOLINES” (Purdue Research Foundation, priority 2020, published 2021)
